Organism: Rattus norvegicus
Assay: DrugMatrix - Regimen: Daily Repeat
Type: toxicity, organism-based, Sprague-Dawley
Parameters: regimen Daily Repeat, gender Male, age 6-8 weeks
Conditions: in vivo, po, route oral GAVAGE, […]; for ABSOLUTE BASOPHIL / ABSOLUTE EOSINOPHIL / ABSOLUTE LYMPHOCYTE / ABSOLUTE MONOCYTE / ABSOLUTE SEGMENTED NEUTROPHIL / BASOPHIL / EOSINOPHIL / ERYTHROCYTE COUNT / HEMATOCRIT / HEMOGLOBIN / LEUKOCYTE COUNT / LYMPHOCYTE / MEAN CORPUSCULAR HEMOGLOBIN / MEAN CORPUSCULAR HEMOGLOBIN CONCENTRATION / MEAN CORPUSCULAR VOLUME / MONOCYTE / NEUTROPHIL / NUCLEATED RED BLOOD CELLS / PLATELET COUNT: tissue Blood; for ALANINE AMINOTRANSFERASE / ALKALINE PHOSPHATASE / ASPARTATE AMINOTRANSFERASE / BLOOD UREA NITROGEN / CARBON DIOXIDE / CHLORIDE / CHOLESTEROL / CREATINE PHOSPHOKINASE / CREATININE / GLUCOSE / LACTATE DEHYDROGENASE / LIPASE / PHOSPHORUS / POTASSIUM / SODIUM / TOTAL BILIRUBIN / TOTAL PROTEIN / URIC ACID: tissue Plasma
[1] = 20.4 mg/kg, 72 h, dose level High, time 3 day
[2] = 20.4 mg/kg, 120 h, dose level High, time 5 day
[3] = 72 h, dose 2.7 mg/Kg, dose level Low, time 3 day
[4] = 120 h, dose 2.7 mg/Kg, dose level Low, time 5 day

SMILES: CC(C(=O)O)c1cccc(C(=O)c2ccccc2)c1 (stereo not drawn) [KETOPROFEN]
- ABSOLUTE BASOPHIL [1]: 0 CELLS/uL
- ABSOLUTE EOSINOPHIL [1]: 0 CELLS/uL
- ABSOLUTE LYMPHOCYTE [1]: 7267.67 CELLS/uL
- ABSOLUTE MONOCYTE [1]: 314.33 CELLS/uL
- ABSOLUTE SEGMENTED NEUTROPHIL [1]: 1618 CELLS/uL
- BASOPHIL [1]: 0%
- EOSINOPHIL [1]: 0%
- ERYTHROCYTE COUNT [1]: 4.75 x10E6/uL
- HEMATOCRIT [1]: 28.6%
- HEMOGLOBIN [1]: 11.67 G/DL
- LEUKOCYTE COUNT [1]: 9.2 x10E3/uL
- LYMPHOCYTE [1]: 76.67%
- MEAN CORPUSCULAR HEMOGLOBIN [1]: 24.67 pg
- MEAN CORPUSCULAR HEMOGLOBIN CONCENTRATION [1]: 40.8 G/DL
- MEAN CORPUSCULAR VOLUME [1]: 60.43 fL
- MONOCYTE [1]: 3.33%
- NEUTROPHIL [1]: 20%
- NUCLEATED RED BLOOD CELLS [1]: 0.67 /100WBC
- PLATELET COUNT [1]: 1067.67 x10E3/uL
- ALANINE AMINOTRANSFERASE [1]: 31.67 u/L
- ALKALINE PHOSPHATASE [1]: 297.33 u/L
- ASPARTATE AMINOTRANSFERASE [1]: 95 u/L
- BLOOD UREA NITROGEN [1]: 15.33 mg/dL
- CARBON DIOXIDE [1]: 25.67 mmol/L
- CHLORIDE [1]: 101.67 MEQ/L
- CHOLESTEROL [1]: 70.33 mg/dL
- CREATINE PHOSPHOKINASE [1]: 362.33 u/L
- CREATININE [1]: 0.15 mg/dL
- GLUCOSE [1]: 138.67 mg/dL
- LACTATE DEHYDROGENASE [1]: 114 u/L
- LIPASE [1]: 9.67 u/L
- PHOSPHORUS [1]: 13.07 mg/dL
- POTASSIUM [1]: 6.63 MEQ/L
- SODIUM [1]: 141.23 MEQ/L
- TOTAL BILIRUBIN [1]: 0.1 mg/dL
- TOTAL PROTEIN [1]: 4.57 G/DL
- URIC ACID [1]: 2.1 mg/dL
- ABSOLUTE BASOPHIL [2]: 0 CELLS/uL
- ABSOLUTE EOSINOPHIL [2]: 0 CELLS/uL
- ABSOLUTE LYMPHOCYTE [2]: 10025.5 CELLS/uL
- ABSOLUTE MONOCYTE [2]: 600.5 CELLS/uL
- ABSOLUTE SEGMENTED NEUTROPHIL [2]: 1824 CELLS/uL
- BASOPHIL [2]: 0%
- EOSINOPHIL [2]: 0%
- ERYTHROCYTE COUNT [2]: 4.91 x10E6/uL
- HEMATOCRIT [2]: 29.7%
- HEMOGLOBIN [2]: 12.2 G/DL
- LEUKOCYTE COUNT [2]: 12.45 x10E3/uL
- LYMPHOCYTE [2]: 76%
- MEAN CORPUSCULAR HEMOGLOBIN [2]: 25 pg
- MEAN CORPUSCULAR HEMOGLOBIN CONCENTRATION [2]: 41.05 G/DL
- MEAN CORPUSCULAR VOLUME [2]: 60.85 fL
- MONOCYTE [2]: 4.5%
- NEUTROPHIL [2]: 19.5%
- NUCLEATED RED BLOOD CELLS [2]: 1 /100WBC
- PLATELET COUNT [2]: 1944 x10E3/uL
- ALANINE AMINOTRANSFERASE [2]: 58 u/L
- ALKALINE PHOSPHATASE [2]: 430 u/L
- ASPARTATE AMINOTRANSFERASE [2]: 128 u/L
- BLOOD UREA NITROGEN [2]: 17 mg/dL
- CARBON DIOXIDE [2]: 21 mmol/L
- CHLORIDE [2]: 99.5 MEQ/L
- CHOLESTEROL [2]: 61.5 mg/dL
- CREATINE PHOSPHOKINASE [2]: 682 u/L
- CREATININE [2]: 0.13 mg/dL
- GLUCOSE [2]: 127.5 mg/dL
- LACTATE DEHYDROGENASE [2]: 391.5 u/L
- LIPASE [2]: 20.5 u/L
- PHOSPHORUS [2]: 14.15 mg/dL
- POTASSIUM [2]: 8.29 MEQ/L
- SODIUM [2]: 138.9 MEQ/L
- TOTAL BILIRUBIN [2]: 0.15 mg/dL
- TOTAL PROTEIN [2]: 5.05 G/DL
- URIC ACID [2]: 3.2 mg/dL
- ABSOLUTE BASOPHIL [3]: 0 CELLS/uL
- ABSOLUTE EOSINOPHIL [3]: 0 CELLS/uL
- ABSOLUTE LYMPHOCYTE [3]: 15950 CELLS/uL
- ABSOLUTE MONOCYTE [3]: 68.67 CELLS/uL
- ABSOLUTE SEGMENTED NEUTROPHIL [3]: 1814.67 CELLS/uL
- BASOPHIL [3]: 0%
- EOSINOPHIL [3]: 0%
- ERYTHROCYTE COUNT [3]: 5.46 x10E6/uL
- HEMATOCRIT [3]: 34.7%
- HEMOGLOBIN [3]: 13.87 G/DL
- LEUKOCYTE COUNT [3]: 17.83 x10E3/uL
- LYMPHOCYTE [3]: 89.67%
- MEAN CORPUSCULAR HEMOGLOBIN [3]: 25.4 pg
- MEAN CORPUSCULAR HEMOGLOBIN CONCENTRATION [3]: 39.97 G/DL
- MEAN CORPUSCULAR VOLUME [3]: 63.5 fL
- MONOCYTE [3]: 0.33%
- NEUTROPHIL [3]: 10%
- NUCLEATED RED BLOOD CELLS [3]: 0.67 /100WBC
- PLATELET COUNT [3]: 1051 x10E3/uL
- ALANINE AMINOTRANSFERASE [3]: 83.33 u/L
- ALKALINE PHOSPHATASE [3]: 375.67 u/L
- ASPARTATE AMINOTRANSFERASE [3]: 100.33 u/L
- BLOOD UREA NITROGEN [3]: 10.33 mg/dL
- CARBON DIOXIDE [3]: 28.67 mmol/L
- CHLORIDE [3]: 99.67 MEQ/L
- CHOLESTEROL [3]: 74 mg/dL
- CREATINE PHOSPHOKINASE [3]: 203.67 u/L
- CREATININE [3]: 0.12 mg/dL
- GLUCOSE [3]: 169 mg/dL
- LACTATE DEHYDROGENASE [3]: 131.33 u/L
- LIPASE [3]: 12 u/L
- PHOSPHORUS [3]: 11.9 mg/dL
- POTASSIUM [3]: 6.6 MEQ/L
- SODIUM [3]: 141.63 MEQ/L
- TOTAL BILIRUBIN [3]: 0.2 mg/dL
- TOTAL PROTEIN [3]: 5.5 G/DL
- URIC ACID [3]: 1.3 mg/dL
- ABSOLUTE BASOPHIL [4]: 0 CELLS/uL
- ABSOLUTE EOSINOPHIL [4]: 0 CELLS/uL
- ABSOLUTE LYMPHOCYTE [4]: 13468.33 CELLS/uL
- ABSOLUTE MONOCYTE [4]: 227.67 CELLS/uL
- ABSOLUTE SEGMENTED NEUTROPHIL [4]: 2570.67 CELLS/uL
- BASOPHIL [4]: 0%
- EOSINOPHIL [4]: 0%
- ERYTHROCYTE COUNT [4]: 5.73 x10E6/uL
- HEMATOCRIT [4]: 35.13%
- HEMOGLOBIN [4]: 14.03 G/DL
- LEUKOCYTE COUNT [4]: 16.27 x10E3/uL
- LYMPHOCYTE [4]: 83%
- MEAN CORPUSCULAR HEMOGLOBIN [4]: 24.5 pg
- MEAN CORPUSCULAR HEMOGLOBIN CONCENTRATION [4]: 39.97 G/DL
- MEAN CORPUSCULAR VOLUME [4]: 61.33 fL
- MONOCYTE [4]: 1.33%
- NEUTROPHIL [4]: 15.67%
- NUCLEATED RED BLOOD CELLS [4]: 0 /100WBC
- PLATELET COUNT [4]: 1235.67 x10E3/uL
- ALANINE AMINOTRANSFERASE [4]: 64.67 u/L
- ALKALINE PHOSPHATASE [4]: 363.67 u/L
- ASPARTATE AMINOTRANSFERASE [4]: 74 u/L
- BLOOD UREA NITROGEN [4]: 13.67 mg/dL
- CARBON DIOXIDE [4]: 31.67 mmol/L
- CHLORIDE [4]: 100.67 MEQ/L
- CHOLESTEROL [4]: 64.33 mg/dL
- CREATINE PHOSPHOKINASE [4]: 125.67 u/L
- CREATININE [4]: 0.17 mg/dL
- GLUCOSE [4]: 146.67 mg/dL
- LACTATE DEHYDROGENASE [4]: 78 u/L
- LIPASE [4]: 11.67 u/L
- PHOSPHORUS [4]: 9.8 mg/dL
- POTASSIUM [4]: 6.54 MEQ/L
- SODIUM [4]: 143.77 MEQ/L
- TOTAL BILIRUBIN [4]: 0.13 mg/dL
- TOTAL PROTEIN [4]: 5.8 G/DL
- URIC ACID [4]: 1.17 mg/dL

Reference: ChEMBL document CHEMBL3885881, “DrugMatrix”
